These results are taken from patent US6569638B1, “Method for screening compounds for the treatment of neoplasia” (Cell Pathways, Inc, priority 2000, dated 2003).

Assay [1] has as its target T1, GST-cGB-PDE5 fusion protein (cGMP binding sites of human PDE5A) (Homo sapiens, UniProt O76074).
T1 construct: made in house; host or cells: E. coli BL21 (DE3)
Nature of the assay: cGMP binding assay (3H-cGMP competition).

In the next assay the target is native bovine PDE5 (Bos taurus, UniProt Q28156). To be noted: read-out: Kd of cGMP binding; cited from earlier work.
In assay [2] the test system is JNK1 in SW480 colon cancer cells. Nature of the assay: JNK1 immunoprecipitation in vitro kinase assay with GST-c-Jun(1-79). Conditions: for JNK1 activation by cGMP modulators: SW480 cells, one hour, dbcGMP 500 μM, dbcAMP 500 μM, YC-1 50 μM, MY-5445 50 μM, dipyridamole 10 μM; for inhibition of Compound B-induced JNK1 activation: SW480 cells pre-treated 2 μM for 2 hours, then Compound B 1 or 10 μM for one hour. Type of assay: cell-based, human. As for the experimental part: The cells were lysed, JNK1 immunoprecipitated with an anti-JNK1 antibody, and the immunoprecipitate (“IP”) assayed for in vitro kinase activity with GST-c-Jun(1-79) as the substrate. The experiments were repeated three times with similar results. Fold activation was measured using a Phosphor Imager.
FIG. 1B: SW480 cells were treated with Compound A (1 μM) for the indicated time periods and in vitro JNK1 kinase activity was determined as described above.
FIG. 2A SW480 cells were treated with either DMSO (−) or Compound A, 0.1 μM; dbcGMP, 500 μM; YC-1, 50 μM; MY-5445, 50 μM; dipyridamole, 10 μM or dbcAMP, 500 μM for one hour. The cells were lysed, JNK1 immunoprecipitated, and the IP assayed for in vitro kinase activity as described in FIG. 1A.
FIG. 2B SW480 cells were pre-treated with either DMSO, KT5720 (2 μM) or Rp-8-pCPT-cGMPS (2 μM) for 2 hours and then treated with Compound B (0, 1 or 10 μM) for one hour. The cells were lysed and assayed for JNK1 activation in the IP as described above.
These concentrations were chosen since they provided optimal induction of apoptosis. Endogenous JNK1 was immunoprecipitated with anti-JNK1 antibody and in vitro kinase assays were performed with GST-c-Jun(1-79) as the substrate. […]
However, the precise role of PKG in signal transduction pathways is not known. […] As a control, KT5720 was used as a protein kinase A (“PKA”)-specific inhibitor. SW480 cells were treated with either DMSO, KT5720 (2 μM) or Rp-8-pCPT-cGMPS (2 μM) for 2 hours and then treated with either DMSO or Compound B (1 or 10 μM) for one hour. Cell extracts were collected and assayed for JNK1 activation.

In assay [3] the test system is PKG in SW480 colon cancer cells. Nature of the assay: PKG assay of drug-treated cell lysates (GST-cGB-PDE5 solid phase substrate). Format: cell-based, human. Conditions: 48 hrs, exisulind 200, 400, 600 μM, E4021 0.1, 1, 10 μM, with and without added cGMP. As for the experimental part:
To test the effect of cGMP-specific PDE inhibition on neoplasia containing the APC mutation, SW480 colon cancer cells were employed. SW 480 is known to contain the APC mutation. About 5 million SW480 cells in RPMI 5% serum are added to each of 8 dishes:
2-10 cm dishes—30 μL DMSO vehicle control (without drug),
3-10 cm dishes—200 μM, 400 μM, 600 μM exisulind in DMSO, and
The dishes are incubated for 48 hrs at 37° C. in 5% CO2 incubator.
The liquid media are aspirated from the dishes (the cells will attach themselves to the dishes). The attached cells are washed in each dish with cold PBS, and 200 μL cell lysis buffer (i.e., 50 mM Tris-HCl, 1% NP-40, 150 mM NaCl, 1 mM EDTA, 1 mM Na3VO4, 1 mM NaF, 500 μM IBMX with proteinase inhibitors) is added to each dish. Immediately after the cell lysis buffer is added, the lysed cells are collected by scraping the cells off each dish. The cell lysate from each dish is transferred to a microfuge tube, and the microfuge tubes are incubated at 4° C. for 15 minutes while gently agitating the microfuge tubes to allow the cells to lyse completely. […]
For each control or drug cell lysate sample to be evaluated, the reaction is started by adding phosphorylation buffer containing 10 μCi ^32P-γ-ATP solution (200 μM ATP, 4.5 mM MgCl; 5 mM KH2PO4; 5 mM K2HPO4;) to each mixture. […]

In the next assay the test system is PARP in SW480 cells. Nature of the assay: PARP cleavage by Western blot. Conditions: SW480 cells pre-incubated 2 μM for 2 hours, then Compound A 1 μM 2 days. Type of assay: cell-based, human. As for the experimental part: SW480 cells were pre-treated with either DMSO (−) or Rp-8-pCPT-cGMPS (2 μM) for 2 hours and then treated with either DMSO (−) or Compound A (1 μM). Both the floating and attached cells were collected after 2 days, and the cell lysates were assayed for PARP cleavage by Western blotting with anti-PARP antibody. Fold increase in PARP cleavage was measured by densitometry of the 85 kD fragment.
Finally, we investigated whether activation of the PKG pathway is required for the induction of apoptosis by SAANDs. SW480 cells were treated with either DMSO or the PKG inhibitor Rp-8-pCPT-cGMPS (2 μM) for 2 hours and then the cells were treated with either DMSO or Compound A (1 μM) for 2 days. Both the floating and attached cells were collected, and the cell lysates were assayed for poly (ADP-ribose) polymerase (PARP) cleavage by Western blotting with an anti-PARP antibody. PARP is a 116 kD nuclear enzyme that converts NAD to nicotinamide and protein-linked ADP-ribose polymers, which are important for DNA repair and genomic maintenance. In cells that are undergoing apoptosis the 116 kD PARP protein is cleaved by caspase-3 into 85 and 25 kD fragments, thus resulting in loss of normal PARP function. This inactivation of PARP apparently prevents depletion of cellular levels of NAD and ATP, which are thought to be required for later events in apoptosis.

[4] abbreviates: at high concentration (100 μM) against cGMP 2 μM.

Like-named read-outs stand apart in the source and are kept apart here.

T1 sequence (O76074 46-539 limits assumed): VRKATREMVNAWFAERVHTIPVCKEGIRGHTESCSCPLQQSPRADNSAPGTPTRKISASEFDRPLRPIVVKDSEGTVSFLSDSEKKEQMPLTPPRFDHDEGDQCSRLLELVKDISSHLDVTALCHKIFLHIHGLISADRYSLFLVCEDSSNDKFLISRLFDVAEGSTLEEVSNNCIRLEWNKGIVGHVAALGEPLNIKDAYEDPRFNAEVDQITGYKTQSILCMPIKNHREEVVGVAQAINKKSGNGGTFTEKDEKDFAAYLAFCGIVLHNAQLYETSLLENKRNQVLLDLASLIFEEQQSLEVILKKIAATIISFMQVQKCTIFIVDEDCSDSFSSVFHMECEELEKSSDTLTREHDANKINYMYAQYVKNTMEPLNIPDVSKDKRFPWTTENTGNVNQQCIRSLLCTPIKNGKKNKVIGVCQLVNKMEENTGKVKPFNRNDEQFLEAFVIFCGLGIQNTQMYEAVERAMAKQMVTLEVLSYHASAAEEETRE

On to `Nc1nc2c(nc(Br)n2[C@@H]2O[C@@H]3COP(=O)(O)O[C@H]3[C@H]2O)c(=O)[nH]1` [Compound 8-bromo-cGMP, 8-bromo-cGMP], for which the “competition with cGMP for the cGMP binding sites of GST-cGB-PDE5” value (shortened to “competition with cGMP”) in assay [1] (setting [4]) is “can partially compete with cGMP”.

As to `CCCCOC1C2OP(=O)(O)OCC2OC1n1cnc2c(N)ncnc21` (stereo not drawn) [2′-O-butyl-cAMP], the “competition with cGMP” value in assay [1] (3H-cGMP 2 μM, 22° C., 1 hour) is on record as “did not compete with cGMP in binding”.

Turning to `Nc1nc2c(ncn2[C@@H]2O[C@@H]3COP(=O)(O)O[C@H]3[C@H]2O)c(=O)[nH]1` [cGMP, cyclic 3′,5′-guanosine monophosphate], the Kd (in general, a measure of binding affinity in units of concentration) in assay [1] was 1.6 ± 0.2 µM; on native bovine PDE5 it was 1.3 µM. Besides, the “competition with cGMP” value in assay [1] (3H-cGMP 2 μM, 22° C., 1 hour) is “specifically binds GST-cGB-PDE5 protein”.

`Clc1cccc(Nc2nnc(-c3ccccc3)c3ccccc23)c1` [MY-5445, 1-(3-chloroanilino)-4-phenyphthalazine]: the “JNK1 activation by cGMP modulators” value in assay [2] is given as “also activated JNK1”.

Consider `CCCC(=O)Nc1nc2c(ncn2C2OC3COP(=O)([O-])OC3C2OC(=O)CCC)c(=O)[nH]1.[Na+]` (stereo not drawn) [dbcGMP, Dibutyrylguanosine 3′:5′-cyclic monophosphate], for which the “JNK1 activation by cGMP modulators” value in assay [2] is reported as “activated JNK1”.

Regarding `O=C([O-])C1CCN(c2nc(NCc3ccc4c(c3)OCO4)c3cc(Cl)ccc3n2)CC1.[Na+]` [Compound E4021], the “PKG activity relative to control” value in assay [3] was “do not exhibit PKG activation relative to control”. Moreover, the “competition with cGMP” value in assay [1] (3H-cGMP 2 μM, 22° C., 1 hour) was “None of the PDE5 inhibitors showed any competition with cGMP”.

On to `Nc1nc2c(nc(Sc3ccc(Cl)cc3)n2[C@@H]2O[C@@H]3CO[P@@](=O)(S)O[C@H]3[C@H]2O)c(=O)[nH]1` [Rp-8-pCPT-cGMP, reference compound], for which the “inhibition of Compound B-induced JNK1 activation” value in assay [2] is on record as “strongly inhibited”. Further, the “inhibition of Compound A-induced PARP cleavage” value in the assay on PARP in SW480 cells is “significantly inhibited”.

For the compound `OCCN(CCO)c1nc(N2CCCCC2)c2nc(N(CCO)CCO)nc(N3CCCCC3)c2n1` [dipyridamole], the “JNK1 activation by cGMP modulators” value in assay [2] is listed as “also activated JNK1”.

For the compound `CCCCOC1C2OP(=O)(O)OCC2OC1n1cnc2c(=O)[nH]c(N)nc21` (stereo not drawn) [2′-O-butyl-cGMP], in assay [1] (3H-cGMP 2 μM, 22° C., 1 hour), the “competition with cGMP” value is given as “did not compete with cGMP in binding”.

Turning to `O=c1ccn([C@@H]2O[C@@H]3COP(=O)(O)O[C@H]3[C@H]2O)c(=O)[nH]1` [cUMP, cyclic UMP], the “competition with cGMP” value in assay [1] (3H-cGMP 2 μM, 22° C., 1 hour) is on record as “did not compete with cGMP in binding”.

For `Nc1ccn([C@@H]2O[C@@H]3COP(=O)(O)O[C@H]3[C@H]2O)c(=O)n1` [cCMP, cyclic CMP], in assay [1] (3H-cGMP 2 μM, 22° C., 1 hour), the “competition with cGMP” value is reported as “did not compete with cGMP in binding”.

Regarding `CCCOc1ccccc1-c1nc2nn[nH]c2c(=O)[nH]1` [zaprinast], in assay [1] (3H-cGMP 2 μM, 22° C., 1 hour), the “competition with cGMP” value is recorded as “None of the PDE5 inhibitors showed any competition with cGMP”.

As for `O=c1[nH]cnc2c1ncn2[C@@H]1O[C@@H]2COP(=O)(O)O[C@H]2[C@H]1O` [Cyclic IMP, cyclic IMP], the “competition with cGMP” value in assay [1] (setting [4]) is listed as “can partially compete with cGMP”.

`CCCC(=O)Nc1ncnc2c1ncn2[C@@H]1O[C@@H]2COP(=O)(O)O[C@H]2[C@H]1OC(=O)CCC` [dbcAMP, dibutyryladenosine 3′:5′-cyclic monophosphate]: in assay [2], the “JNK1 activation by cGMP modulators” value is “inactive”.

On to `Nc1ncnc2c1ncn2[C@@H]1O[C@@H]2COP(=O)(O)O[C@H]2[C@H]1O` [Cyclic AMP], for which, in assay [1], the “competition with cGMP” value is given as “did not compete with cGMP in binding”.

Regarding `CCCCCCOC(=O)[C@]1(O)C[C@@H]2O[C@@]1(C)n1c3ccccc3c3c4c(c5c6ccccc6n2c5c31)C(=O)NC4` [KT5720], the “inhibition of Compound B-induced JNK1 activation” value in assay [2] is on record as “no inhibitory activity”.

For the compound `OCc1ccc(-c2nn(Cc3ccccc3)c3ccccc23)o1` [YC-1], the “JNK1 activation by cGMP modulators” value in assay [2] is listed as “also activated JNK1”.
